In publication PMC2778643, “Differential role of the menthol-binding residue Y745 in the antagonism of thermally gated TRPM8 channels” (Molecular Pain, 2009):
Read-outs that look alike come from different tables or passages of the source.

Columns and labels:
[1] = target: T1, TRPM8-Y745H mutant channel (Mus musculus, UniProt Q8R4D5, Y745H); test: Calcium imaging (Fura-2) of HEK293 cells expressing TRPM8-Y745H; assay type: cell-based
T1 construct: The full length cDNA encoding mouse TRPM8 (NM_134252) in pcDNA5; expressed in transfected cells; host or cells: HEK293
T1 sequence (Q8R4D5 whole entry Y745H): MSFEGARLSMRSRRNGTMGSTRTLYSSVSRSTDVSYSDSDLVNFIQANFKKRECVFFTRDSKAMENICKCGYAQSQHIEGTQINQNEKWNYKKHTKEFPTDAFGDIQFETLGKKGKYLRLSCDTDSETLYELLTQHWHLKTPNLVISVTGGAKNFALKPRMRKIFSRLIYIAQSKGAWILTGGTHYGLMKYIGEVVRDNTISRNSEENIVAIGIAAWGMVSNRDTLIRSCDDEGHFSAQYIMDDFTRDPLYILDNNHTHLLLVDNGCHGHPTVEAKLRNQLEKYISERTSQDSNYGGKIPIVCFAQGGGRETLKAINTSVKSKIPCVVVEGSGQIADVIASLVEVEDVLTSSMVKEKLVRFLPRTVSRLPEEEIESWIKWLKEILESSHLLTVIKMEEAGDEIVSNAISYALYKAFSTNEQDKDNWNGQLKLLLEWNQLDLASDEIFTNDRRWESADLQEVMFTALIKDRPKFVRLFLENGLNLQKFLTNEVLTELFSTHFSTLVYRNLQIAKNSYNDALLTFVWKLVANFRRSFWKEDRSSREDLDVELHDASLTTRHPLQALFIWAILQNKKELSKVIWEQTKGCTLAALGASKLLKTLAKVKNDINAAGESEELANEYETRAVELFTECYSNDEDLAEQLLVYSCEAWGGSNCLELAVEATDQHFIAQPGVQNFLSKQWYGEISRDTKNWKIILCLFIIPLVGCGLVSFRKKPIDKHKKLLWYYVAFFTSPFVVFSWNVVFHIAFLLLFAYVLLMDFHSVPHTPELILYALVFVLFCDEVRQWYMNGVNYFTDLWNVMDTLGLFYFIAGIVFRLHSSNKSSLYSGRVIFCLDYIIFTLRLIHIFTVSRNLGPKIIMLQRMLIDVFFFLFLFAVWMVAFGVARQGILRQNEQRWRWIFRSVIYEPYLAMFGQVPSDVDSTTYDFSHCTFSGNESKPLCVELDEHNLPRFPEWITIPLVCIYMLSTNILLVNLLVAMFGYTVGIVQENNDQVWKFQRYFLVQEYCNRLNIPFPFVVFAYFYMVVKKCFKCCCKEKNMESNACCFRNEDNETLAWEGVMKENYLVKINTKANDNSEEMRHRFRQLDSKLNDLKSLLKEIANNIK
Description: (§1) The full length cDNA encoding mouse TRPM8 (NM_134252) in pcDNA5 (Invitrogen) was kindly provided by Dr. Ardem Patapoutian, (Scripps Research Institute, La Jolla, CA). The TRPM8-Y745H mutant was obtained by site-directed mutagenesis with the following primers: (for) 5'-[…]-3'; (rev) 5'-[…]-3', and Pfu Turbo Taq DNA Polymerase (Roche).
(§2) HEK293 cells were cultured in DMEM containing 10% of foetal bovine serum and antibiotics, and plated in 2 cm^2 wells at 400.000-500.000 cells/well. 20-24 h after plating, the cells were co-transfected with eGFP (0.3 μg/well) and TRPM8-wt or TRPM8-Y745H (2 μg/well) by incubating them with a solution containing the plasmid DNA and Lipofectamine 2000 (Invitrogen) for 5 hours. Subsequently, the cells were trypsinized and replated on poly-L-lysine-coated round coverslips (6 mm diameter). 20-48 h post-transfection, GFP(+) cells were selected for calcium imaging or electrophysiology experiments.
(§3) Prior to experiment, HEK293 cells transfected with the TRPM8-wt/Y745H constructs were incubated with 5 μM Fura-2AM dissolved in the bath solution and 0.02% Pluronic (both from Invitrogen) for 40 min at 37°C in darkness. Fluorescence measurements were made with a Leica DM IRE2 inverted microscope fitted with a CCD camera (Imago QE Sensicam, TillPhotonics, Graefelfing, Germany). Fura-2 was excited at 340 nm and 380 nm with a Polychrome IV monochromator (Till Photonics) and the emitted fluorescence was filtered with a 510 nm longpass filter.
(§4) Coverslip pieces with cultured cells were placed in a microchamber and continuously perfused with solutions warmed at 33°C. The temperature was adjusted with a water-cooled Peltier device placed at the inlet of the chamber, and controlled by a feedback device. Cold-sensitivity was investigated with a temperature decrease to 18-20°C (Figure 1B).

TRPM8-wt channel [2] = target: T2, TRPM8-wt channel (Mus musculus, UniProt Q8R4D5); test: Whole-cell patch clamp of HEK293 cells expressing TRPM8-wt; assay type: cell-based; conditions: for Inhibition of voltage-activated TRPM8-wt current: 33°C, +120 mV
T2 construct: The full length cDNA encoding mouse TRPM8 (NM_134252) in pcDNA5; expressed in transfected cells; host or cells: HEK293
T2 sequence (Q8R4D5 whole entry): as the sequence (Q8R4D5 whole entry Y745H) above, with H745Y counted along it
Description: as §1, §2
(§5) Whole-cell voltage-clamp recordings of TRPM8-wt/Y745H transfected HEK293 cells were performed simultaneously with temperature recordings. Current development was monitored at a holding potential of -60 mV. For information on voltage-dependent effects, 1.25-s-duration voltage ramps from -100 to +150 mV were delivered at desired time points. Standard patch-pipettes (3-5 MΩ) were made of borosilicate glass capillaries (Harvard Apparatus Ltd, UK), and contained (in mM): 150 NaCl, 3 MgCl2, 5 EGTA, 10 HEPES, (278 mOsm/kg; pH 7.2, adjusted with NaOH). During electrophysiological recordings, a divalent cation -free bath solution was used to minimize desensitization, which contained: 150 NaCl, 10 EDTA, 10 HEPES and 10 glucose (pH 7.4 with NaOH). The divalent-free solution was used in the preparation of all chemical modulator containing solutions. Current signals were recorded with an Axopatch 200B patch-clamp amplifier (Molecular Devices, Sunnyvale, CA, U.S.A.) applying series resistance compensation (60-90%). Stimulus delivery and data acquisition were performed using pClamp 9 software (Molecular Devices). Data were sampled at 5 kHz (ramps) and 1 kHz (timecourse) and filtered online at 2 kHz.
as §4
Experiments were always performed in parallel with cells expressing TRPM8-wt and TRPM8-Y745H to minimize any day-to-day variability in experimental conditions. […]

[3] = target: T1, TRPM8-Y745H mutant channel; test: Whole-cell patch clamp of HEK293 cells expressing TRPM8-Y745H; assay type: cell-based; conditions: for Inhibition of voltage-activated TRPM8-Y745H current: +120 mV
Description: as §1, §2, §5, §4
Experiments were always performed in parallel with cells expressing TRPM8-wt and TRPM8-Y745H to minimize any day-to-day variability in experimental conditions. To estimate the shifts in the voltage-dependence of activation of TRPM8-wt/Y745H in HEK293 cells, current-voltage (I-V) relationships from voltage ramps were fitted with an equation that combines a linear conductance multiplied by a Boltzmann activation term: [drawing 1]

TRPM8-wt channel [4] = conditions: calcium imaging (CI), cited from earlier work
TRPM8-wt channel [5] = conditions: electrophysiology (EP), +80 mV, cited from earlier work
TRPM8-wt channel [6] = target: T2, TRPM8-wt channel; test: Calcium imaging (Fura-2) of HEK293 cells expressing TRPM8-wt; assay type: cell-based
Description: as §1, §2, §3, §4

TRPM8-wt channel [7] = target: T2, TRPM8-wt channel; design: method as in PMID 14757700; conditions: 100 μM menthol-activated TRPM8-wt, FLIPR; cited from earlier work
[8] = Solubility in the extracellular solution; assay type: physicochemical; conditions: reproducible data above 20 μM complicated
[9] = 3 μM antagonist, compared with TRPM8-wt
[10] = 100 μM menthol-activated TRPM8-wt, modified from ref 25, read-out: IC50 menthol
[11] = cold-activated TRPM8-wt, read-out: IC50 cold
[12] = cold-activated TRPM8-wt, read-out: IC50 cold (converted)
[13] = 100 μM, at 33°C or during cooling

## CC(C)(C)c1ccc(NC(=O)N2CCN(c3ncccc3Cl)CC2)cc1 [BCTC, 4-[3-chloro-pyridin-2-yl]-piperazine-1-carboxylic acid [4-tert-butyl-phenyl]-amide]
[1]; [9]
  Block of cold-evoked [Ca2+]i response of TRPM8-Y745H: maintained its full and reversible blocking potential
TRPM8-wt channel [2]; 3 μM
  Inhibition of voltage-activated TRPM8-wt current: strong inhibition
[3]; 3 μM, +80 mV
  Block of cooling-activated TRPM8-Y745H current: 98%
[3]; 33°C, 3 μM
  Inhibition of voltage-activated TRPM8-Y745H current: without affecting the block
TRPM8-wt channel [4]; [10]
  IC50: 470 ± 10 nM
TRPM8-wt channel [4]; [11]
  IC50: 680 ± 60 nM
TRPM8-wt channel [5]; 100 μM menthol-activated TRPM8-wt, modified from ref 25, read-out: IC50 menthol (converted)
  IC50: 340 nM
TRPM8-wt channel [5]; [12]
  IC50: 540 nM

## Oc1cc2c(cc1O)CN(C(=S)NCCc1ccc(Cl)cc1)CCC2 [Capsazepine, N-[2-(4-Chlorophenyl)ethyl]-1,3,4,5-tetrahydro-7,8-dihydroxy-2H-2-benzazepine-2-carbothioamide]
TRPM8-wt channel [6]; cold-activated TRPM8-wt, calcium imaging (CI), this work
  IC50: 12000 ± 2000 nM
[1]; calcium imaging, cooling-activated
  Inhibitory potency at cooling-activated TRPM8-Y745H compared with wild-type (dose-inhibition curves): lost part of their inhibitory potential
TRPM8-wt channel [7]
  IC50: 18000 ± 1000 nM

## Clc1ccccc1C(c1ccccc1)(c1ccccc1)n1ccnc1 [Clotrimazole, 1-[(2-chlorophenyl)diphenylmethyl]-1H-imidazole]
[8]
  Solubility in the extracellular solution: limited solubility

## c1c[nH]cn1 [Imidazole, 1,3-diazacyclopenta-2,4-diene]
TRPM8-wt channel [6]; 20 μM, 100 μM and 1 mM
  Inhibition of cooling-activated TRPM8 wild-type: ineffective
[1]; 20 μM, 100 μM and 1 mM
  Inhibition of cooling-activated TRPM8-Y745H: ineffective

## COc1ccc(CCCOC(Cn2ccnc2)c2ccc(OC)cc2)cc1 (centres unmarked) [SKF96365]
[1]; [9]
  Block of cold-evoked [Ca2+]i response of TRPM8-Y745H: nearly complete loss of effect
[1]; 20 μM (super saturating concentration), compared with 3 μM
  Block of cold-evoked [Ca2+]i response of TRPM8-Y745H: unable to increase block
TRPM8-wt channel [2]; 3 μM
  Block of cold-evoked TRPM8-wt current: potent antagonism
  Inhibition of voltage-activated TRPM8-wt current: strong inhibition
TRPM8-wt channel [2]; TRPM8-wt, cooling, 3 μM SKF96365
  Apparent gating charge during antagonist application: 0.73 ± 0.04
[3]; 3 μM
  Block of cold-evoked TRPM8-Y745H current: completely failed to block
[3]; 20 μM
  Block of cold-evoked TRPM8-Y745H current: lacked any inhibitory effects
[3]; 33°C, 3 μM
  Inhibition of voltage-activated TRPM8-Y745H current: fully abrogated the inhibition
[3]; TRPM8-Y745H, cooling, 3 μM SKF96365
  Apparent gating charge during antagonist application: 0.63 ± 0.04
TRPM8-wt channel [4]; [10]
  IC50: 3000 ± 1000 nM
TRPM8-wt channel [4]; [11]
  IC50: 1000 ± 200 nM
TRPM8-wt channel [5]; [12]
  IC50: 800 nM

## CC1CCC(C(C)C)C(O)C1 [menthol, L-menthol]
TRPM8-wt channel [6]; [13]
  Agonist effect on intracellular calcium, TRPM8-wt: increase the intracellular calcium levels
[1]; [13]
  Agonist effect on intracellular calcium, TRPM8-Y745H: lack of menthol responses
[3]; 100 μM, 33°C, all potentials
  Agonist effect on whole-cell current, TRPM8-Y745H: completely insensitive to menthol
